# Results published in patent USH1427H, “Substituted flavonoid compounds, their salts, their manufacture and their use in combination with interleukin-2” (priority 1992, dated 1995).
# Columns and labels:
# YAC-1 tumor target = assay: Augmentation of NK activity, 4-hr 51Cr release assay with effector leukocytes from treated animals; assay type: in vivo, mice; conditions: Table 1
# Source text: The immunomodulatory activity of boosting NK activity is readily determined in accordance with the protocol outlined by Wiltrout et al. in J. Exp. Med. (1984), vol. 160, p. 1431-1449, which is hereby incorporated by reference. Using this protocol, the flavonoid compounds of the present invention must be capable of boosting NK activity at least 2-fold, preferably at least 3-fold, and most preferably at least 4-fold, as measured in lytic units. (See "In Vitro Methods in Cell Mediated and Tumor Immunity", eds. Barry R. Bloom and John R. David, pub. Academic Press (1976), p. 427, for the definition of lytic units.)
# Assessment of NK activity. […] Effector leukocytes were isolated from spleen, peritoneal cavity, lungs, and liver as previously described (J. Exp. Med., vol. 160, 1431 (1984) and J. Immunol., vol. 135, 1477 (1985)). NK activity was expressed as either [formula] or LU/1×10^7 cells, with one LU being the number of effector cells required to lyse 20% or 40% of the target cells. Statistical comparisons in NK activity were performed by the student's t-test.
# Peak levels of NK-mediated lysis were generally achieved by 24 hour post injection, with levels of NK activity decreasing to background by about day 6.
# serum IFN = assay type: in vivo; conditions: Table 1
# [1] = test system: Renca renal adenocarcinoma; assay: Survival of Renca-bearing mice treated with flavonoid and/or rIL-2; assay type: in vivo, BALB/C mice; conditions: Table 1, flavonoid plus rIL-2
# Description: Tumor model. The model used for these studies is the Renca renal adenocarcinoma, a tumor that originated spontaneously and is maintained by serial transplant in BALB/C mice (JNCI, vol. 50, 1013 (1973)). […] After injection of 1×10^5 tumor cells under the renal capsule, the solid tumor mass develops rapidly with direct extension to the peritoneal cavity by days 7 to 9 and metastasis to regional lymph nodes and the liver shortly thereafter. […] Flavonoid was administered by injection of 125 mg/kg i.v. and 125 mg/kg i.p., whereas various doses of rIL-2 were delivered by the i.p. route. Routinely, flavonoid was administered 2 to 4 h after nephrectomy of the primary tumor-bearing kidney on day 11, and rIL-2 was administered once per day for 4 successive days beginning on the day after nephrectomy and FAA treatment. Statistical analysis of survival data was performed by the .chi.^2 test.
# The flavonoid compound was administered by injection of e.g. 125 mg/kg i.v. and e.g. 125 mg/kg i.p., whereas various doses of rIL-2 were delivered by the i.p. route. Routinely, flavonoid compound was administered 2 to 4 hours after nephrectomy of the primary tumor-bearing kidney on day 11 and rIL-2 was administered once per day for 4 successive days beginning on the day after nephrectomy and flavonoid treatment. Statistical analysis of survival data was performed by the .chi.^2 test.
# BALB/C mice (e.g. 10/group) were injected i.v. with 1×10^5 Renca tumor cells on day 0. On day 11 the tumor-bearing kidney was removed and 2 to 4 h later flavonoid (125 mg/kg i.v.+125 mg/kg i.p.) was administered to appropriate groups. Subsequently, beginning on day 12, some of the flavonoid pretreated mice and two groups of previously untreated mice received four daily i.p. injections of rIL-2 at doses of 30,000 U/day. Mice were then monitored for survival and statistical analyses performed by the .chi.^2 test.
# [2] = Preliminary preclinical therapeutic synergy between coumarin and rIL2; assay type: in vivo; conditions: preliminary preclinical experiments
# Source text: In another publication, Wiltrout et al., J. Natl. Cancer Inst.
# [3] = test system: metastatic renal cell cancer; conditions: clinical trial, selected patients; Marshal et al.; cited from earlier work
# natural killer activity [4] = conditions: cited from earlier work
# [5] = test system: established murine renal cancer; conditions: established murine renal cancer in BALB/c mice; cited from earlier work
# interferon = conditions: preliminary studies, Wiltrout et al.; cited from earlier work
# natural killer activity [6] = conditions: preliminary studies, Wiltrout et al.; cited from earlier work
# Lewis lung carcinoma = conditions: cited from earlier work
# [7] = test system: Renca murine renal cancer; conditions: combined doxorubicin and adoptive immunotherapy with rIL-2; cited from earlier work
structure (smiles),measurement,setting,value
C=C(C(=O)O)c1cccc2c(=O)cc(-c3ccccc3)oc12 [LM2891],NK,YAC-1 tumor target,+
same,IFN,serum IFN,+
same,Synergistic Therapy With IL-2,[1],+
O=c1ccc2ccccc2o1 [coumarin],therapeutic synergy between coumarin and rIL2,[2],no therapeutic synergy was observed
same,anti-tumor activity in patients with metastatic renal cell cancer,[3],demonstrated anti-tumor activity
O=C(O)Cc1cccc2c(=O)cc(-c3ccccc3)oc12 [flavone-8-acetic acid],"natural killer activity, flavone-8-acetic acid plus rIL-2","natural killer activity [4]; combination with rIL-2, normal and tumor-bearing mice, Wiltrout et al.",synergistically augmented natural killer activity
same,natural killer activity in nonlymphoid organs (liver and lungs) as well as in the spleen,"natural killer activity [4]; liver, lungs, spleen, Wiltrout et al.",could augment natural killer activity in nonlymphoid organs (liver and lungs) as well as in the spleen
same,splenic natural killer activity,"natural killer activity [4]; spleen, Ching et al.",augments splenic natural killer activity
same,"anti-tumor effects, combination of flavone-8-acetic acid plus interleukin-2",[5],synergistic anti-tumor effects
same,induction of interferon in vitro,interferon,failed to detect induction of interferon
same,augmentation of natural killer activity in vitro,natural killer activity [6],failed to detect
same,susceptibility of Lewis lung carcinoma cells implanted in diffusion chambers in the peritoneum,"Lewis lung carcinoma; administered ip, diffusion chambers, Finlay et al.",not susceptible
same,anti-tumor effects against Lewis lung carcinoma,"Lewis lung carcinoma; in vivo, mice, Finlay et al.",pronounced anti-tumor effects
same,tumoricidal activity in vivo compared with direct cytotoxic effects in vitro,"Lewis lung carcinoma; mouse, in vivo",more pronounced and occurs more rapidly in vivo than direct cytotoxic effects observed in vitro
COc1cccc2c1C(=O)c1c(O)c3c(c(O)c1C2=O)C[C@@](O)(C(=O)CO)C[C@@H]3O[C@H]1C[C@H](N)[C@H](O)[C@H](C)O1 [doxorubicin],treatment of Renca murine renal cancer,[7],successfully treated
COc1cccc(-c2cc(=O)c3cccc(CC(=O)O)c3o2)c1 [LM2889],NK,YAC-1 tumor target,+
same,IFN,serum IFN,+
same,Synergistic Therapy With IL-2,[1],+
O=C(O)Cc1cccc2c(=O)cc(-c3ccco3)oc12 [LM2888],NK,YAC-1 tumor target,+
same,IFN,serum IFN,I
same,Synergistic Therapy With IL-2,[1],I
